# Assays:
# TYK2 = TYK2 (Homo sapiens (Human), UniProt P29597); assay: Biochemical potency on Tyk2, TR-FRET LANCE Ultra kinase assay (compounds 1-92); conditions: ATP at Km, read-out: Tyk2 inhibitory activity (pIC50 class) (converted)
# Procedure: (§1) Biochemical Potency on JAK1, JAK2, JAK3 and Tyk2 Assay Principle The objective of this study was to assess the capability of compounds to inhibit all 4 JAK isoforms activity in a cell-free environment. Assay for JAK 1, JAK 2, JAK 3 and TYK2 were performed by Time-resolved fluorescence resonance energy transfer (TR-FRET) technology. It consists in the interaction of two labelled binding partners detected by the energy transfer from an excited donor to an acceptor dye and measurement of light emission by the acceptor dye. LANCE Ultra kinase assay was used. In presence of JAK 1, JAK 2, JAK 3 and TYK2 kinases and ATP (corresponding to Km), the ULight peptide substrate (LANCE Ulight-JAK-1 ([…]) Peptide, Perkin Elmer, TRF0121) is phosphorylated. It is then captured by Eu-anti-phospho-substrate antibody (LANCE Eu-W1024 Anti-phosphotyrosine (PT66), Perkin Elmer, AD0069), which bring the Eu-chelate donor and ULight acceptor dyes into close proximity. Upon excitation at 320 nm, the Eu-chelate transfers its energy to the ULight dye, resulting in a fluorescent light emission at 665 nm. Compound Testing Serial dilutions of compounds in pure DMSO are prepared from 10 mM DMSO stock solutions. Compounds were tested in 384-well plate for 11 consecutive 5-fold dilutions starting from 20 μM highest concentration (20 μM-[…]). 200 nL of compound were transferred from mother plate to test plate by using Mosquito (TTP labtech). Assay was performed in 384-well Perkin Elmer test plate in 20 μL assay volume (kinase reaction) and 40 μL total volume (stopping reagent and antibody detection reagents). In 10 μL of substrate solution (peptide+ATP) 30/50/20/10 nM of peptide and 20/0.7/0.2/12 μM of ATP were added for JAK 1, JAK 2, JAK 3 and TYK2 respectively. 10 μL of enzyme solution was added to kinase reaction at these concentrations: 0.15/0.083/0.025/0.144 ng/μL of JAK 1, JAK 2, JAK 3 and TYK2 respectively. After shaking and 1.5 h of incubation at r.t., 20 μL of Stop (10 μL EDTA) and Detection mixture (10 μL Europium-anti-phospho antibody, final: 0.5 nM) were added. Reading was performed after 1 h of incubation on a EnVision 2104 reader (Perkin Elmer). Calculation of IC50 data, curves and QC analysis was performed by using Excel tool and GraphPadPrism software, v9. Briefly, individual concentration-effect curves are generated by plotting the logarithm of the tested concentration of tested compounds (X) vs. corresponding percent inhibition values (Y) using least squares (ordinary) fit. Best fit IC50 values are calculated using Log(inhibitor) vs. normalized response-Variable slope equation, where Y=100/(1+10^((Log IC50-X)*HillSlope)). QC criteria parameters (Z', S:B, R2, HillSlope) were checked for every IC50 curve. Calculation of IC50 data, curves and QC analysis were made using Excel tools and GraphPadPrism software. QC criteria parameters: Z'≥0.5, Hill Slope range 0.5 to 5, S:B>2.
# JAK 2 = JAK 2 (Homo sapiens (Human), UniProt O60674); assay: Biochemical potency on JAK2, TR-FRET LANCE Ultra kinase assay (compounds 1-92); conditions: ATP at Km, read-out: JAK2 inhibitory activity (pIC50 class) (converted)
# Sequence of JAK 2 (O60674 whole entry): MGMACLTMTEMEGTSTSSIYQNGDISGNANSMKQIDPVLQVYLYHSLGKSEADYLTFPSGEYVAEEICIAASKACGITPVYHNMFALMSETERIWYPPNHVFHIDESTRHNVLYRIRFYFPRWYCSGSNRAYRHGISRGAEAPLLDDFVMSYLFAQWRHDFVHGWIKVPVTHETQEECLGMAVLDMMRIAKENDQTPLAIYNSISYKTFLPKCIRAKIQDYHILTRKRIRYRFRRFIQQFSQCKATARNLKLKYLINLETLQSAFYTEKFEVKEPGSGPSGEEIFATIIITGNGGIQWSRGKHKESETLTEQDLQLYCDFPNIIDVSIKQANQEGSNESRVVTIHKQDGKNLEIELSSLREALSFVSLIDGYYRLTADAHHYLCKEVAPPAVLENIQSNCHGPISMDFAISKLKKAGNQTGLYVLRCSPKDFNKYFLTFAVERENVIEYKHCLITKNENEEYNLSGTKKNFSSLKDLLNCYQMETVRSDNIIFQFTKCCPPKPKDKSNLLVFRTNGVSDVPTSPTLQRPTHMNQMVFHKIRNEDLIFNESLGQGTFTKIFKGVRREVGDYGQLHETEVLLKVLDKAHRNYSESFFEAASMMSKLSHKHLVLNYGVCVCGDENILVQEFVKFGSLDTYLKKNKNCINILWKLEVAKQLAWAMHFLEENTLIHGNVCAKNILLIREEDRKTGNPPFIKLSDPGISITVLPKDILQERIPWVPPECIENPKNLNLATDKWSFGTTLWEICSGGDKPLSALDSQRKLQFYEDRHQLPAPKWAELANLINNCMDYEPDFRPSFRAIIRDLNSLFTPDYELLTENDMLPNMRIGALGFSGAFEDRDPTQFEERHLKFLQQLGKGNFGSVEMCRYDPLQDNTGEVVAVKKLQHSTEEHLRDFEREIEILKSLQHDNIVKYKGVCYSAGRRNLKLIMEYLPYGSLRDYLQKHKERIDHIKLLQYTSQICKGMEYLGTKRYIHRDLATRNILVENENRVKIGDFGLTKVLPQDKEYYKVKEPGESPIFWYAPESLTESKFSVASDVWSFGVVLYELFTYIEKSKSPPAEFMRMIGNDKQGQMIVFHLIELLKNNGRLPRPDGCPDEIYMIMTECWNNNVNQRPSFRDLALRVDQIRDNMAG
# Procedure: as §1
# JAK 1 = JAK 1 (Homo sapiens (Human), UniProt P23458); assay: Biochemical potency on JAK1, TR-FRET LANCE Ultra kinase assay (compounds 1-92); conditions: ATP at Km, read-out: JAK1 inhibitory activity (pIC50 class) (converted)
# Sequence of JAK 1 (P23458 whole entry): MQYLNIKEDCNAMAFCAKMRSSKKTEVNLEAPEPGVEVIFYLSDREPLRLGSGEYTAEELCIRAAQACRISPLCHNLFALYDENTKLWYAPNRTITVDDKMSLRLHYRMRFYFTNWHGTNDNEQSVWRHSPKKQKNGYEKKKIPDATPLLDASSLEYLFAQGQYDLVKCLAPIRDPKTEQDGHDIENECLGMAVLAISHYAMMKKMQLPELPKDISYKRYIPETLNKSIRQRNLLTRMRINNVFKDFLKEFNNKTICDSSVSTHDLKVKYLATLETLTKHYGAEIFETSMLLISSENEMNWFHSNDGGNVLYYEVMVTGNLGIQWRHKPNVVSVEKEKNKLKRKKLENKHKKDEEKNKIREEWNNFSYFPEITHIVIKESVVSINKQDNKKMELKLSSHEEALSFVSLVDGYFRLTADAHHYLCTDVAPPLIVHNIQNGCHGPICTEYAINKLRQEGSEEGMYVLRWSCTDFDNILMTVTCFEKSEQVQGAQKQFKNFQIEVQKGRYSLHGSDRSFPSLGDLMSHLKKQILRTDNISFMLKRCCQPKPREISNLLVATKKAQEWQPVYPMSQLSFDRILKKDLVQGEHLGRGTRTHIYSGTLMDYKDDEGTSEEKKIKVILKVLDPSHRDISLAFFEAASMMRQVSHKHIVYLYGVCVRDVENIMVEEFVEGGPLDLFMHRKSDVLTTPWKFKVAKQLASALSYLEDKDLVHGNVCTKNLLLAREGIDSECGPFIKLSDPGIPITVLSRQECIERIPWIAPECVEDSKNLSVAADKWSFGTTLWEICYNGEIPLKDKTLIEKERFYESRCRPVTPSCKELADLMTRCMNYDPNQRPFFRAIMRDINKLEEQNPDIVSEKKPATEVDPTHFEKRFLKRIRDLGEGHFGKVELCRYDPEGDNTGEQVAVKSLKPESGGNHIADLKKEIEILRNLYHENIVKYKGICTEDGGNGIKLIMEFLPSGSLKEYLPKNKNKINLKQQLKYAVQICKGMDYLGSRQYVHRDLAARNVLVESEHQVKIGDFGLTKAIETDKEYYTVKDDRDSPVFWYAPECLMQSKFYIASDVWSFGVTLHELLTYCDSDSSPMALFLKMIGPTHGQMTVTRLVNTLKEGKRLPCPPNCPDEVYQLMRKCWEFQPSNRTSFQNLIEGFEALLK
# Procedure: as §1
# JAK 3 = JAK 3 (Homo sapiens (Human), UniProt P52333); assay: Biochemical potency on JAK3, TR-FRET LANCE Ultra kinase assay (compounds 1-92); conditions: ATP at Km, read-out: JAK3 inhibitory activity (pIC50 class) (converted)
# Sequence of JAK 3 (P52333 whole entry): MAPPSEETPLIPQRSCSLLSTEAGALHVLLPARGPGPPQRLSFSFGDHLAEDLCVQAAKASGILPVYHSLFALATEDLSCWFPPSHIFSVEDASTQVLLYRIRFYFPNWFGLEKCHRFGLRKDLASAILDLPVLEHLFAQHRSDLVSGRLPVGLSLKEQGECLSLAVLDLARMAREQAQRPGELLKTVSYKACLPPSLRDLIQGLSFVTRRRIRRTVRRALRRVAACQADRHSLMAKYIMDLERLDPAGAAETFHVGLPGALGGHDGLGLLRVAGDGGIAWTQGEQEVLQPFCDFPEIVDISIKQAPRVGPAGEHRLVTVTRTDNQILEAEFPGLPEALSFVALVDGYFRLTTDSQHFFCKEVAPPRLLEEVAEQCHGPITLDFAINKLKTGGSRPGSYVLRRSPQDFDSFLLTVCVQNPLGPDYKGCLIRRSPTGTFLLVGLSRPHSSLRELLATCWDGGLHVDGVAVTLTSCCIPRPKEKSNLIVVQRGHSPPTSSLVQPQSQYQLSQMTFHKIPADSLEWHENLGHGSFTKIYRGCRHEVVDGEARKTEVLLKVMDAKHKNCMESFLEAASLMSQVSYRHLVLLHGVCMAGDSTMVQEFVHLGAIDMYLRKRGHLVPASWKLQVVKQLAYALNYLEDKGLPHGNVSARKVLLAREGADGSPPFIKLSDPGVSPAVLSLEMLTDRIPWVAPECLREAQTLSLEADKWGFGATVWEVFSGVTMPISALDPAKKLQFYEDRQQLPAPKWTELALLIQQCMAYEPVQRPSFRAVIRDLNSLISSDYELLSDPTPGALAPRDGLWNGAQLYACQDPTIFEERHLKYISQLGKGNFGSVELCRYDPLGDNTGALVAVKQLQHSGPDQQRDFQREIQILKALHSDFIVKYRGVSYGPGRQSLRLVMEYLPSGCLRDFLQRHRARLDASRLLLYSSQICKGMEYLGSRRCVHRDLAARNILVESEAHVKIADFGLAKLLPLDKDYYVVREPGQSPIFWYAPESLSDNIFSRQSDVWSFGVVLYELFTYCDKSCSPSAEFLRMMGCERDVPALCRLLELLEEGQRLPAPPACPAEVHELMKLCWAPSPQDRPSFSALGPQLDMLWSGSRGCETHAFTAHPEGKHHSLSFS
# Procedure: as §1
# Sequence of TYK2 (P29597 whole entry, canonical isoform): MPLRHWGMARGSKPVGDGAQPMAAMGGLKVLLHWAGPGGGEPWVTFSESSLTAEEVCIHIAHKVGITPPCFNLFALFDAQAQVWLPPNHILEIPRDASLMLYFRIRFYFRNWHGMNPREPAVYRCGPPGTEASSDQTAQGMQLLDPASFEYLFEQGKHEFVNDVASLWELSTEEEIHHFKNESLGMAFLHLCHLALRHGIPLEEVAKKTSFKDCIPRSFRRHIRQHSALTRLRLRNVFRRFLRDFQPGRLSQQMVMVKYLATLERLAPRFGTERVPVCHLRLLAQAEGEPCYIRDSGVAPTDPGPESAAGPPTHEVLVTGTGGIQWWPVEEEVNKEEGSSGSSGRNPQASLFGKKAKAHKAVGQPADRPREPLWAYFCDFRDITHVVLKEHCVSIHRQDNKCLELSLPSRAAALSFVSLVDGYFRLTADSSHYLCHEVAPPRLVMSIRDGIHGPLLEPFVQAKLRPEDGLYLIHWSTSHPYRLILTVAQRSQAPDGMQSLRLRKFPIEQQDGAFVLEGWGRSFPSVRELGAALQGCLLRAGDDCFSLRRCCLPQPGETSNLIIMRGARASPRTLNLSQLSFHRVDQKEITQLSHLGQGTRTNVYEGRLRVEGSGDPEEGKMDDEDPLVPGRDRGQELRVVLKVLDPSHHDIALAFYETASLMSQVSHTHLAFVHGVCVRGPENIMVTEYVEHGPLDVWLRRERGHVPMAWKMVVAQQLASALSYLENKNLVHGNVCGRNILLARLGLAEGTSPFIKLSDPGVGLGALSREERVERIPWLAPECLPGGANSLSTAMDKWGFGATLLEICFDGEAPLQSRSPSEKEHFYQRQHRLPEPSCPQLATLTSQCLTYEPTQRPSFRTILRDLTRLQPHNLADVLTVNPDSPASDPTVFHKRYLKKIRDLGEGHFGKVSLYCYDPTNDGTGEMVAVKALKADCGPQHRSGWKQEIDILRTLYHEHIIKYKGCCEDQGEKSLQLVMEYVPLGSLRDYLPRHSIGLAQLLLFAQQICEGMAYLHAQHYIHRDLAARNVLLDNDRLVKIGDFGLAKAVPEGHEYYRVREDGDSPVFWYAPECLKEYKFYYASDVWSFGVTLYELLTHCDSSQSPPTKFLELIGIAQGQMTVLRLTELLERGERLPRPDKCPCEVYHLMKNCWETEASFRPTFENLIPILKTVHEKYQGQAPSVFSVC
SMILES,IC50 (TYK2) [nM],IC50 (JAK 2) [nM],IC50 (JAK 1) [nM],IC50 (JAK 3) [nM]
"COc1cc(NS(C)(=O)=O)ccc1-n1nc(NCCN2CCCCC2)c2cnc(-c3cnn4cccnc34)cc21 [Example 37, N-(3-methoxy-4-(3-((2-(piperidin-1-yl)ethyl)amino)-6-(pyrazolo[1,5-a]pyrimidin-3-yl)-1H-pyrazolo[4,3-c]pyridin-1-yl)phenyl)methanesulfonamide]",5.01 to 50.1,≤ 5.01,≤ 5.01,≤ 5.01
"COc1cc(NS(C)(=O)=O)ccc1-n1nc(NCCN2CCN(C)CC2)c2cnc(-c3cnn4cccnc34)cc21 [Example 38, N-(3-methoxy-4-(3-((2-(4-methylpiperazin-1-yl)ethyl)amino)-6-(pyrazolo[1,5-a]pyrimidin-3-yl)-1H-pyrazolo[4,3-c]pyridin-1-yl)phenyl)methanesulfonamide]",5.01 to 50.1,≤ 5.01,≤ 5.01,≤ 5.01
"COc1cc(NS(C)(=O)=O)ccc1-n1nc(NCCN(C)CCF)c2cnc(-c3cnn4cccnc34)cc21 [Example 39, N-(4-(3-((2-((2-fluoroethyl)(methyl)amino)ethyl)amino)-6-(pyrazolo[1,5-a]pyrimidin-3-yl)-1H-pyrazolo[4,3-c]pyridin-1-yl)-3-methoxyphenyl)methanesulfonamide]",5.01 to 50.1,≤ 5.01,≤ 5.01,≤ 5.01
"COc1cc(NS(C)(=O)=O)ccc1-n1nc(N(C)CCN2CCOCC2)c2cnc(-c3cnn4cccnc34)cc21 [Example 40, N-(3-methoxy-4-(3-(methyl(2-morpholinoethyl)amino)-6-(pyrazolo[1,5-a]pyrimidin-3-yl)-1H-pyrazolo[4,3-c]pyridin-1-yl)phenyl)methanesulfonamide]",5.01 to 50.1,5.01 to 50.1,5.01 to 50.1,5.01 to 50.1
"COc1cc(NS(C)(=O)=O)ccc1-n1nc(NC(=O)C2CCN(C)CC2)c2cnc(-c3cnn4cccnc34)cc21 [Example 41, N-(1-(2-methoxy-4-(methylsulfonamido)phenyl)-6-(pyrazolo[1,5-a]pyrimidin-3-yl)-1H-pyrazolo[4,3-c]pyridin-3-yl)-1-methylpiperidine-4-carboxamide]",5.01 to 50.1,≤ 5.01,≤ 5.01,≤ 5.01
"COc1cc(NS(C)(=O)=O)ccc1-n1nc(C(=O)NCCCN(C)C)c2cnc(-c3cnn4cccnc34)cc21 [Example 43, N-(3-(dimethylamino)propyl)-1-(2-methoxy-4-(methylsulfonamido)phenyl)-6-(pyrazolo[1,5-a]pyrimidin-3-yl)-1H-pyrazolo[4,3-c]pyridine-3-carboxamide]",5.01 to 50.1,≤ 5.01,≤ 5.01,5.01 to 50.1
"COc1cc(NS(C)(=O)=O)ccc1-n1nc(C(=O)NCCN(C)C)c2cnc(-c3cnn4cccnc34)cc21 [Example 44, N-(2-(dimethylamino)ethyl)-1-(2-methoxy-4-(methylsulfonamido)phenyl)-6-(pyrazolo[1,5-a]pyrimidin-3-yl)-1H-pyrazolo[4,3-c]pyridine-3-carboxamide]",5.01 to 50.1,≤ 5.01,≤ 5.01,≤ 5.01
"COc1cc(NS(C)(=O)=O)ccc1-n1nc(C(=O)NCCN2CCOCC2)c2cnc(-c3cnn4cccnc34)cc21 [Example 45, 1-(2-methoxy-4-(methylsulfonamido)phenyl)-N-(2-morpholinoethyl)-6-(pyrazolo[1,5-a]pyrimidin-3-yl)-1H-pyrazolo[4,3-c]pyridine-3-carboxamide]",5.01 to 50.1,≤ 5.01,≤ 5.01,≤ 5.01
"CCCS(=O)(=O)Nc1ccc(-n2nc(C(=O)NCCCN(C)C)c3cnc(-c4cnn5cccnc45)cc32)c(OC)c1 [Example 46, N-(3-(dimethylamino)propyl)-1-(2-methoxy-4-(propylsulfonamido)phenyl)-6-(pyrazolo[1,5-a]pyrimidin-3-yl)-1H-pyrazolo[4,3-c]pyridine-3-carboxamide]",> 50.1,5.01 to 50.1,5.01 to 50.1,5.01 to 50.1
"CCCS(=O)(=O)Nc1ccc(-n2nc(C(=O)NCCCN3CCOCC3)c3cnc(-c4cnn5cccnc45)cc32)c(OC)c1 [Example 47, 1-(2-methoxy-4-(propylsulfonamido)phenyl)-N-(3-morpholinopropyl)-6-(pyrazolo[1,5-a]pyrimidin-3-yl)-1H-pyrazolo[4,3-c]pyridine-3-carboxamide]",> 50.1,5.01 to 50.1,5.01 to 50.1,5.01 to 50.1
"COc1cc(NC(=O)c2ccccc2)cnc1-n1nc(C)c2cnc(-c3cnn4cccnc34)cc21 [Example 48, N-(5-methoxy-6-(3-methyl-6-(pyrazolo[1,5-a]pyrimidin-3-yl)-1H-pyrazolo[4,3-c]pyridin-1-yl)pyridin-3-yl)benzamide]",5.01 to 50.1,≤ 5.01,5.01 to 50.1,≤ 5.01
"CNS(=O)(=O)c1ccc(-n2nc(C)c3cnc(-c4cnn5cccnc45)cc32)c(OC)c1 [Example 49, 3-methoxy-N-methyl-4-(3-methyl-6-(pyrazolo[1,5-a]pyrimidin-3-yl)-1H-pyrazolo[4,3-c]pyridin-1-yl)benzenesulfonamide]",> 50.1,≤ 5.01,5.01 to 50.1,≤ 5.01
"CNS(=O)(=O)c1ccc(-n2nc(NCCN3CCOCC3)c3cnc(-c4cnn5cccnc45)cc32)c(OC)c1 [Example 50, 3-methoxy-N-methyl-4-(3-((2-morpholinoethyl)amino)-6-(pyrazolo[1,5-a]pyrimidin-3-yl)-1H-pyrazolo[4,3-c]pyridin-1-yl)benzenesulfonamide]",5.01 to 50.1,≤ 5.01,≤ 5.01,≤ 5.01
"CNc1nn(-c2ccc(S(=O)(=O)NC)cc2OC)c2cc(-c3cnn4cccnc34)ncc12 [Example 51, 3-methoxy-N-methyl-4-(3-(methylamino)-6-(pyrazolo[1,5-a]pyrimidin-3-yl)-1H-pyrazolo[4,3-c]pyridin-1-yl)benzenesulfonamide]",5.01 to 50.1,≤ 5.01,≤ 5.01,≤ 5.01
"CNS(=O)(=O)c1ccc(-n2nc(NCCCN(C)C)c3cnc(-c4cnn5cccnc45)cc32)c(OC)c1 [Example 52, 4-(3-((3-(dimethylamino)propyl)amino)-6-(pyrazolo[1,5-a]pyrimidin-3-yl)-1H-pyrazolo[4,3-c]pyridin-1-yl)-3-methoxy-N-methylbenzenesulfonamide]",5.01 to 50.1,≤ 5.01,5.01 to 50.1,≤ 5.01
"COc1cc(CNS(C)(=O)=O)ccc1-n1nc(NCCN2CCOCC2)c2cnc(-c3cnn4cccnc34)cc21 [Example 53, N-(3-methoxy-4-(3-((2-morpholinoethyl)amino)-6-(pyrazolo[1,5-a]pyrimidin-3-yl)-1H-pyrazolo[4,3-c]pyridin-1-yl)benzyl)methanesulfonamide]",5.01 to 50.1,≤ 5.01,≤ 5.01,≤ 5.01
"COc1cc(CNS(C)(=O)=O)ccc1-n1nc(NCCN2CCCCC2)c2cnc(-c3cnn4cccnc34)cc21 [Example 54, N-(3-methoxy-4-(3-((2-(piperidin-1-yl)ethyl)amino)-6-(pyrazolo[1,5-a]pyrimidin-3-yl)-1H-pyrazolo[4,3-c]pyridin-1-yl)benzyl)methanesulfonamide]",5.01 to 50.1,≤ 5.01,5.01 to 50.1,5.01 to 50.1
"CNc1nn(-c2ccc(CNS(C)(=O)=O)cc2OC)c2cc(-c3cnn4cccnc34)ncc12 [Example 55, N-(3-methoxy-4-(3-(methylamino)-6-(pyrazolo[1,5-a]pyrimidin-3-yl)-1H-pyrazolo[4,3-c]pyridin-1-yl)benzyl)methanesulfonamide]",5.01 to 50.1,≤ 5.01,≤ 5.01,≤ 5.01

# From patent US20240209001A1, “HETEROCYCLIC DERIVATIVES AS JANUS KINASE INHIBITORS” (CHIESI FARMACEUTICI S.P. A., priority 2021, published 2024)
